One assay concerns the target T1, Caspase-7 (Homo sapiens, UniProt P55210).
T1 sequence (P55210 whole entry): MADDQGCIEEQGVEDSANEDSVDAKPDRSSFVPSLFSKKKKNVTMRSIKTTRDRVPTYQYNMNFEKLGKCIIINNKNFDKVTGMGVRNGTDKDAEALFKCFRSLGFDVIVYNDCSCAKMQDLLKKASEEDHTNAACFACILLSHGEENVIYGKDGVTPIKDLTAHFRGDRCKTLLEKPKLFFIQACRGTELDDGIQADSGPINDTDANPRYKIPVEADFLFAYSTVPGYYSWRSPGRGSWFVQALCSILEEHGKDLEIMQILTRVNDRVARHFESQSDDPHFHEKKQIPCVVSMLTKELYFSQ
The assay is described as follows: caspase-7 enzyme inhibition, selectivity check – biochemical, DEVD-R110 fluorescence, cherry-pick, selectivity assay for caspase-6 inhibitor project, dose response (AID 743295). The assay is classed as functional.

Another assay concerns the target T2, Caspase-3 (Homo sapiens, UniProt P42574).
T2 sequence (P42574 whole entry): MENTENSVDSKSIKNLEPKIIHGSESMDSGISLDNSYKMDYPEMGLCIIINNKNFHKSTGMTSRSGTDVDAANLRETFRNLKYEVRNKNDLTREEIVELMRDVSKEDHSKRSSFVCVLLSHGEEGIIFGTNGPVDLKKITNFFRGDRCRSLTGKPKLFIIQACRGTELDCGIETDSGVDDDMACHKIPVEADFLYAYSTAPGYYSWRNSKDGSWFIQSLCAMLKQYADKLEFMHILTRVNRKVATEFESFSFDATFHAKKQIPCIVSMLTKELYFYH
The assay is described as follows: Dose-response confirmation of uHTS inhibitor hits of Sentrin-Specific Protease 8 in a Caspase-3 Fluorescence assay. It is filed as functional.

Assay [1] concerns the target Protein kinase C delta type (Homo sapiens, UniProt Q05655). It is filed as functional.
In assay [2] the target is Testis-specific serine/threonine-protein kinase 2 (Homo sapiens, UniProt Q96PF2). The assay is classed as functional.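 Also: part of the Navigating the Kinome panel, target entry STK22B.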
A further assay concerns the target Aurora kinase A (Homo sapiens, UniProt O14965). It is filed as functional.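 Also: value from the Navigating the Kinome kinase panel profiling, panel entry STK6.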
Assay [3] deals with Serine/threonine-protein kinase PAK 4 (Homo sapiens, UniProt O96013). It is filed as functional.
Assay [4] deals with Calcium/calmodulin-dependent protein kinase type II subunit delta (Homo sapiens, UniProt Q13557). The assay is classed as functional.
Assay [5] concerns the target Serine/threonine-protein kinase TAO1 (Homo sapiens, UniProt Q7L7X3). The assay is classed as functional.
Assay [6] concerns the target Tyrosine-protein kinase Blk (Homo sapiens, UniProt P51451). The assay is classed as functional.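 Also: obtained as one member of a kinome-wide kinase assay panel.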
Assay [7] concerns the target Homeodomain-interacting protein kinase 2 (Homo sapiens, UniProt Q9H2X6). It is filed as functional.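 Also: measured within a kinome-wide kinase profiling panel, HIPK2 being one panel member.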
Assay [8] deals with Serine/threonine-protein kinase pim-3 (Homo sapiens, UniProt Q86V86). The assay is classed as functional.
The target of assay [9] is Protein kinase C gamma type (Homo sapiens, UniProt P05129). It is filed as functional.
Assay [10] addresses Tyrosine-protein kinase Srms (Homo sapiens, UniProt Q9H3Y6). The assay is classed as functional.
Assay [11] has as its target Glycogen synthase kinase-3 alpha (Homo sapiens, UniProt P49840). It is filed as functional.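 Also: GSK3A result taken from a broad kinome-wide kinase panel.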
Assay [12] deals with Mitogen-activated protein kinase kinase kinase kinase 2 (Homo sapiens, UniProt Q12851). It is filed as functional.
The target of assay [13] is Hepatocyte growth factor receptor (Homo sapiens, UniProt P08581). It is filed as functional.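 Also: kinase panel profiling across the kinome, with MET as the panel member.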
Sequence of Hepatocyte growth factor receptor (P08581 whole entry): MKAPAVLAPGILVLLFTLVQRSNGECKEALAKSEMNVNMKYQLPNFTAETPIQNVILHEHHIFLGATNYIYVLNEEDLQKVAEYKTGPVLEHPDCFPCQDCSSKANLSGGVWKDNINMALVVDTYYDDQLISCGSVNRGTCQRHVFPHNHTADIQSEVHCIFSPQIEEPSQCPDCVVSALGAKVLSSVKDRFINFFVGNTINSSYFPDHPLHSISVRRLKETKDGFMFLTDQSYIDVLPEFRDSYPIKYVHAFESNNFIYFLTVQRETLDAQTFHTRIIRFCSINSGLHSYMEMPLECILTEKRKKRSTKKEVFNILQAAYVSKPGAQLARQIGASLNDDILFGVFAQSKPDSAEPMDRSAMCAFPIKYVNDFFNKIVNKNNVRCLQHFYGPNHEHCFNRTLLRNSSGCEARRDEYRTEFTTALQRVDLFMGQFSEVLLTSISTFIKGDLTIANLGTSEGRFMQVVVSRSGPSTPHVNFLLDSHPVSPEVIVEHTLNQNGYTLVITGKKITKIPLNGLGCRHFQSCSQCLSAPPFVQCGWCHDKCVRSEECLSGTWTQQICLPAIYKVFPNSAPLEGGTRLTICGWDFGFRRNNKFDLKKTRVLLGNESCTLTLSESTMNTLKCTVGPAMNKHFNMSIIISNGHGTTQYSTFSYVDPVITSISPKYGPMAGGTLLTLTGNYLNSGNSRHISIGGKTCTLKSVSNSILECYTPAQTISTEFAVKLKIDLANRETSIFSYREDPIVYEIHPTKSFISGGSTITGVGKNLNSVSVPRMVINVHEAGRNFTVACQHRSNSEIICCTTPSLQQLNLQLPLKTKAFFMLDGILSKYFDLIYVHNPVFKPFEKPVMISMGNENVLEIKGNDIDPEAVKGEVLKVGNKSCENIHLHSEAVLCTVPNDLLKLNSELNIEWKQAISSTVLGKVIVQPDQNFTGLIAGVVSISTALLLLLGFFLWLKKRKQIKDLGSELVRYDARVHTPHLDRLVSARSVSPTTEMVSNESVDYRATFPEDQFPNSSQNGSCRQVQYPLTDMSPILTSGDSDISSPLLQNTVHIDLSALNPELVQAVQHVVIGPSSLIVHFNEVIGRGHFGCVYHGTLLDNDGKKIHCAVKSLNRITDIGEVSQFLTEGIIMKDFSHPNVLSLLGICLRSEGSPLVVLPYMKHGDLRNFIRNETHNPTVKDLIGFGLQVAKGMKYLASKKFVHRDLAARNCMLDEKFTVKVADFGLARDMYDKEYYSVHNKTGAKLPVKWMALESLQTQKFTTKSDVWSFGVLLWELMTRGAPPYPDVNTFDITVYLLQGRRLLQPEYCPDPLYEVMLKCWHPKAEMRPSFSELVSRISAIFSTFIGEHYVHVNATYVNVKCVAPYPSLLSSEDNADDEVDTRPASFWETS
Another assay deals with Activated CDC42 kinase 1 (Homo sapiens, UniProt Q07912). The assay is described as follows: Navigating the Kinome. Panel member name: ACK1. The assay is classed as functional.
Assay [14] concerns the target MAP kinase-activated protein kinase 3 (Homo sapiens, UniProt Q16644). The assay is classed as functional.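 Also: value comes from a kinome-wide profiling panel in which MAPKAPK3 is one of the panel members.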
Assay [15] has as its target Serine/threonine-protein kinase Chk1 (Homo sapiens, UniProt O14757). The assay is classed as functional.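 Also: measured as one member of a kinome-wide kinase profiling panel.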
In assay [16] the target is Dual specificity tyrosine-phosphorylation-regulated kinase 1B (Homo sapiens, UniProt Q9Y463). The assay is described as follows: Navigating the Kinome. Panel member name: DYRK1B. It is filed as functional.
Assay [17] deals with Platelet-derived growth factor receptor alpha (Homo sapiens, UniProt P16234). The assay is described as follows: Navigating the Kinome. Panel member name: PDGFRA. It is filed as functional.
Sequence of Platelet-derived growth factor receptor alpha (P16234 whole entry): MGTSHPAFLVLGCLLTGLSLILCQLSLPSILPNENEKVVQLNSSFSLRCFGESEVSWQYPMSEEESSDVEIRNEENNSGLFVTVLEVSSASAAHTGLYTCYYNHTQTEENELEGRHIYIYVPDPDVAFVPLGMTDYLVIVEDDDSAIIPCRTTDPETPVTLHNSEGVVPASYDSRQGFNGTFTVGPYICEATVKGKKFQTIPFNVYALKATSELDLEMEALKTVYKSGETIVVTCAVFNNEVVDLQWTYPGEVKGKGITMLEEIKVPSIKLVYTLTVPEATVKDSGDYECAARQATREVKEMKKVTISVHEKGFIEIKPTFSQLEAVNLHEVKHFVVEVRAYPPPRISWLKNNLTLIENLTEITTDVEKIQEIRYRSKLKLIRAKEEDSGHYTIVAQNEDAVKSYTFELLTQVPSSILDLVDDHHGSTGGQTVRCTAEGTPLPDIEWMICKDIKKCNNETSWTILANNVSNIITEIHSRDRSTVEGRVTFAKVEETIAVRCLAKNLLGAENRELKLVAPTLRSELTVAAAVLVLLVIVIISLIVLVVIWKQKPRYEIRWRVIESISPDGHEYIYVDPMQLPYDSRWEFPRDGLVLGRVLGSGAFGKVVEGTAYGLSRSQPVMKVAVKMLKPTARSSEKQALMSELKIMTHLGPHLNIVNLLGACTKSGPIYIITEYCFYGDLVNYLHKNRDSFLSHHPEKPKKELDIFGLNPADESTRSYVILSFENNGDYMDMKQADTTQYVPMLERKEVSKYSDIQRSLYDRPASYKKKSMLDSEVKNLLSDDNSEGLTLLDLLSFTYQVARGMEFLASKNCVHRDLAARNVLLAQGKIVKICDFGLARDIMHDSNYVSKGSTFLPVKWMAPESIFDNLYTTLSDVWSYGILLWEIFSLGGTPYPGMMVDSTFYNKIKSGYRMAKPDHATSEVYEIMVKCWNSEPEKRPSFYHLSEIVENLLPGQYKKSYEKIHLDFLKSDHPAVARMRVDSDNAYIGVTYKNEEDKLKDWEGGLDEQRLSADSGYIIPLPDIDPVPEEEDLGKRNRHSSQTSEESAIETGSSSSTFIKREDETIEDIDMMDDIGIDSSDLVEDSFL
Assay [18] addresses Cyclin-dependent kinase 1 (Homo sapiens, UniProt P06493). It is filed as functional.
The target in assay [19] is Serine/threonine-protein kinase Nek2 (Homo sapiens, UniProt P51955). It is filed as functional.
The target in assay [20] is Cyclin-dependent kinase 8 (Homo sapiens, UniProt P49336). The assay is described as follows: Navigating the Kinome. Panel member name: CDK8. The assay is classed as functional.
Assay [21] has as its target Glycogen synthase kinase-3 beta (Homo sapiens, UniProt P49841). It is filed as functional.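 Also: value comes from a broad kinome profiling panel, with GSK3B as the panel member.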
For assay [22], the target named is cAMP-dependent protein kinase catalytic subunit alpha (Homo sapiens, UniProt P17612). It is filed as functional.
For assay [23], the target named is Dual specificity mitogen-activated protein kinase kinase 2 (Homo sapiens, UniProt P36507). The assay is described as follows: Navigating the Kinome. Panel member name: MAP2K2. It is filed as functional.
Sequence of Dual specificity mitogen-activated protein kinase kinase 2 (P36507 whole entry): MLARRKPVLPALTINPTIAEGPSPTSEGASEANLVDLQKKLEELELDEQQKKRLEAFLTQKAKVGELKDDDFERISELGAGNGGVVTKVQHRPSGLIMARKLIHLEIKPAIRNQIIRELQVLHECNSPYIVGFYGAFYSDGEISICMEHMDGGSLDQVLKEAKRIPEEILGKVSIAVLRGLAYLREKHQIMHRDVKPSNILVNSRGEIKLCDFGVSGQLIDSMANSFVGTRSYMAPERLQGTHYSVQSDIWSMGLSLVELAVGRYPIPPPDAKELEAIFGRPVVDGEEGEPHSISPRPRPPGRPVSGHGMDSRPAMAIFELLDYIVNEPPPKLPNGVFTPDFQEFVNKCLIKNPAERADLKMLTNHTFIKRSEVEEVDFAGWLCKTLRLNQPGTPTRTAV
Assay [24] has as its target Calcium/calmodulin-dependent protein kinase type II subunit alpha (Homo sapiens, UniProt Q9UQM7). The assay is described as follows: Navigating the Kinome. Panel member name: CAMK2A. It is filed as functional.
For assay [25], the target named is Epidermal growth factor receptor (Homo sapiens, UniProt P00533).

Calls of active or inactive are those of the source.

Sequence of Homeodomain-interacting protein kinase 2 (Q9H2X6 whole entry): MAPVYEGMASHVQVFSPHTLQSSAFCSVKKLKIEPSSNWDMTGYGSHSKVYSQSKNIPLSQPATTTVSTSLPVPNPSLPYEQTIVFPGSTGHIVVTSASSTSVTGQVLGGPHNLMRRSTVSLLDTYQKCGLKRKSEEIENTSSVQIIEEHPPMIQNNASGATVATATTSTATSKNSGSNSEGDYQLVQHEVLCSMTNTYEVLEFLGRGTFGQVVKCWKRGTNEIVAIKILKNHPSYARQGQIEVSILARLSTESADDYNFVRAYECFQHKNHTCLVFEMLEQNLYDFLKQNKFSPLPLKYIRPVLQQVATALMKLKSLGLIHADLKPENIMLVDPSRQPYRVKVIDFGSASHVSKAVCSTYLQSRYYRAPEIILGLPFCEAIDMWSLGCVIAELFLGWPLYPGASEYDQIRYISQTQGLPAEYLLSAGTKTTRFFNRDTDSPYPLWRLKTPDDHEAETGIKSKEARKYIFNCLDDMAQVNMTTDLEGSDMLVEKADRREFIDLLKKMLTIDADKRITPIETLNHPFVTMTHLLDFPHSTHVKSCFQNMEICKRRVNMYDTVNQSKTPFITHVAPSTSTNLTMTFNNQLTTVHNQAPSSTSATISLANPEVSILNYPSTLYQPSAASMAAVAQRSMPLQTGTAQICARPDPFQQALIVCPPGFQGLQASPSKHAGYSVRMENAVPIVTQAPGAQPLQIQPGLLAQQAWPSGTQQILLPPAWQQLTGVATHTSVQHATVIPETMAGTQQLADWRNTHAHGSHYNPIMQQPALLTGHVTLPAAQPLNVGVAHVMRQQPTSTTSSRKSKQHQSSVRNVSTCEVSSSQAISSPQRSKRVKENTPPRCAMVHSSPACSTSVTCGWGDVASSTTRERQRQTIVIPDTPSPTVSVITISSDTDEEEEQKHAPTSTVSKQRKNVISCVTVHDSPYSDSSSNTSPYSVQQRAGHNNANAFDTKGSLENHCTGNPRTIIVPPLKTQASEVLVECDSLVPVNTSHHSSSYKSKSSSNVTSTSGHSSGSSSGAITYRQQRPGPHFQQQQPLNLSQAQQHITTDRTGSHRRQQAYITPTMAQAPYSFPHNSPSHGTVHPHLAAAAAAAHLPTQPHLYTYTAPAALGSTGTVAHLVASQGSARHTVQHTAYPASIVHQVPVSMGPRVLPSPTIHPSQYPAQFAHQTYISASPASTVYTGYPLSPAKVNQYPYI

`Cc1c(NC(=O)C(C)OC(=O)c2ccc([N+](=O)[O-])s2)c(=O)n(-c2ccccc2)n1C` (centres undefined): on Caspase-7, the AC50 was 17.5 µM (active).

`COc1cc(Br)c(C(=O)c2nccc3cc(OC)c(OC)cc23)cc1OC`: the IC50 at Caspase-3 was 0.407 µM (active).

Regarding `CC(N)C1CCC(C(=O)Nc2ccnc3[nH]ccc23)CC1` (centres undefined), the Ki in assay [1] was 0.158 µM (active); in assay [2] it was > 1.58 µM (inactive); at Aurora kinase A, > 2 µM (inactive); in assay [3], 1.58 µM (active); in [4], 3.16 µM (active); in assay [5] it was > 7.94 µM (inactive). For the same compound, the Ki is > 1.58 µM (inactive) in assay [6]; > 3.16 µM (inactive) in assay [7]; > 7.94 µM (inactive) in assay [8]; 2.51 µM (active) in assay [9]; > 1.58 µM (inactive) in [10]; > 6.31 µM (inactive) in [11]. Further, the Ki was > 2 µM (inactive) in assay [12]; > 2.51 µM (inactive) in assay [13]; > 3.98 µM (inactive) on Activated CDC42 kinase 1; > 10 µM (inactive) in assay [14]; > 7.94 µM (inactive) in assay [15]; 0.158 µM (active) in assay [16]. The Ki in assay [17] is > 2.51 µM (inactive); in [18], 0.631 µM (active); in [19] it was > 10 µM (inactive); in assay [20], 0.501 µM (active); in assay [21], > 5.01 µM (inactive); in assay [22], 0.0794 µM (active). For the same compound, the values for the Ki in assay [23], in assay [24] and in [25] were > 2 µM (inactive), 3.98 µM (active) and > 2 µM (inactive), respectively.

The values are drawn from ChEMBL document CHEMBL1201862, “PubChem BioAssay data set” (2004).
